The text below walks through data of PubChem BioAssay (NCI).

Among the test systems are SK-MEL-2 melanoma; SK-MEL-28 melanoma; SF-539 CNS; MDA-MB-435; PC-3 prostate; TK-10 renal; HT29 colon; CAKI-1 renal; COLO 205 colon; HOP-92 NSCLC.
Common to all, as to assay: NCI-60 cell line screen, 48 h

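Following 48 hours of exposure in 96-well plates, responses at five concentrations were used to interpolate endpoints linearly. GI50 = concentration required for 50% inhibition of growth. Definition used: TGI = concentration required for complete inhibition of growth.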

Turning to `COc1cc(/C=C2\CC3C4CC=C5C[C@@H](OC(C)=O)CC[C@]5(C)C4CC[C@]3(C)C2=O)ccc1OCCN1CCCCC1` (some centres not stated), the GI50 with SK-MEL-2 melanoma is 10.1 µM; in the assay on SK-MEL-28 melanoma, 3.24 µM; in the assay on SF-539 CNS it was 2.02 µM; in the assay on MDA-MB-435, 1.93 µM; with PC-3 prostate it was 3.51 µM; in the assay on TK-10 renal, 3.4 µM. Besides, the figures for the GI50 in the assay with HT29 colon, in the assay with CAKI-1 renal and in the assay with COLO 205 colon were 1.88 µM, 2.65 µM and 3.14 µM, respectively. For the same compound, the TGI in the assay with SK-MEL-2 melanoma is 28.4 µM; in the assay with SK-MEL-28 melanoma, more than 100 µM; with SF-539 CNS, 3.82 µM; with MDA-MB-435, 4.28 µM; in the assay with PC-3 prostate, 11.2 µM; with TK-10 renal, 12.3 µM. Further, the TGI is more than 100 µM with HT29 colon, 7.64 µM with CAKI-1 renal and 30.4 µM in the assay on COLO 205 colon.

As for `COc1ccc(Nc2nc3cc(N)cc(N)c3nc2-c2ccccc2)cc1`, the GI50 in the assay on SK-MEL-2 melanoma is 15.6 µM; with SK-MEL-28 melanoma it was 16.8 µM; in the assay on MDA-MB-435, 16.5 µM; in the assay on HOP-92 NSCLC, 19.9 µM; with PC-3 prostate, 20.9 µM; in the assay with TK-10 renal, 16.5 µM. The GI50 in the assay on CAKI-1 renal was 35.2 µM; in the assay with COLO 205 colon it was 15.7 µM. The TGI in the assay on SK-MEL-2 melanoma was found to be 31.4 µM; in the assay with SK-MEL-28 melanoma it was 30.5 µM; in the assay with MDA-MB-435 it was 30.1 µM; in the assay on HOP-92 NSCLC, 52.6 µM; in the assay on PC-3 prostate it was 47.6 µM; in the assay on TK-10 renal, 42.5 µM. In addition, the TGI is 42.7 µM with HT29 colon, more than 100 µM with CAKI-1 renal and 29.2 µM in the assay on COLO 205 colon.

As for `C[C@@H](Oc1cc(-n2cnc3ccc(OC4CCN(C)CC4)cc32)sc1C(N)=O)c1ccccc1Cl`, the GI50 with SF-539 CNS was 0.0564 µM; in the assay with MDA-MB-435, 0.00549 µM; in the assay with HOP-92 NSCLC, 0.0387 µM; with PC-3 prostate, 0.0153 µM; in the assay on TK-10 renal it was 1.79 µM; in the assay on HT29 colon, 0.00829 µM. Besides, the GI50 was 1.08 µM with CAKI-1 renal and 0.00926 µM in the assay on COLO 205 colon. Moreover, the TGI stood at 2.29 µM in the assay on SF-539 CNS; 0.0159 µM in the assay on MDA-MB-435; 2.78 µM in the assay with HOP-92 NSCLC; 6.02 µM in the assay with PC-3 prostate; 5.75 µM with TK-10 renal; 2.77 µM with HT29 colon. Further, the TGI in the assay on CAKI-1 renal came out at 6.08 µM; in the assay on COLO 205 colon, 0.106 µM.

For the compound `O=C(O)CSc1n[nH]c(=O)[nH]c1=O`, the TGI in the assay on SK-MEL-2 melanoma, in the assay on SK-MEL-28 melanoma, in the assay on SF-539 CNS, in the assay with MDA-MB-435, in the assay on PC-3 prostate and in the assay on HT29 colon was more than 100 µM in each case. For the same compound, the TGI in the assay with CAKI-1 renal and with COLO 205 colon was more than 100 µM each time.

Consider `OCC1C(OCc2ccccc2)C(OCc2ccccc2)C(OCc2ccccc2)CN1Cc1ccccc1` (configuration not stated), for which the TGI was more than 100 µM in the assay with SK-MEL-28 melanoma; more than 100 µM with SF-539 CNS; more than 100 µM with MDA-MB-435; 44.8 µM with HOP-92 NSCLC; 88.1 µM in the assay with PC-3 prostate; more than 100 µM in the assay on TK-10 renal. For the same compound, the TGI in the assay with HT29 colon is 34.6 µM; in the assay on CAKI-1 renal it was more than 100 µM; in the assay on COLO 205 colon it was 28.4 µM.

In the case of `OC(CNc1ccnc2cc(Cl)ccc12)CNc1ccnc2cc(Cl)ccc12`, the GI50 is 1.74 µM in the assay with SF-539 CNS; 1.67 µM in the assay on MDA-MB-435; 4.22 µM in the assay on HOP-92 NSCLC; 1.6 µM in the assay on PC-3 prostate; 2.13 µM in the assay on TK-10 renal; 31.1 µM in the assay on CAKI-1 renal. The TGI is 3.3 µM in the assay with SF-539 CNS; 3.1 µM in the assay on MDA-MB-435; 19.1 µM in the assay on HOP-92 NSCLC; 3.1 µM in the assay with PC-3 prostate; 4.86 µM with TK-10 renal; more than 100 µM in the assay with CAKI-1 renal.

Take `O=C(NCCCCN1CCOCC1)c1cc2ccccc2o1`: the GI50 with SK-MEL-2 melanoma, in the assay with SK-MEL-28 melanoma, with SF-539 CNS, in the assay on MDA-MB-435, with PC-3 prostate and in the assay with TK-10 renal was more than 100 µM each time. Also, the GI50 in the assay with HT29 colon, with CAKI-1 renal and in the assay on COLO 205 colon was more than 100 µM each time. Further, the TGI in the assay with SK-MEL-2 melanoma, in the assay with SK-MEL-28 melanoma, in the assay on SF-539 CNS, in the assay on MDA-MB-435, in the assay on PC-3 prostate and in the assay on TK-10 renal was more than 100 µM throughout. For the same compound, the TGI in the assay on HT29 colon, in the assay with CAKI-1 renal and in the assay with COLO 205 colon was more than 100 µM each time.

Consider `Cc1c(C)n(CCCN2CCN(C)CC2)c2ccc(Oc3cccc(C(=O)N4CCN(CCc5ccc(F)cc5)CC4)c3)cc12`, for which the GI50 with SK-MEL-28 melanoma is 1.78 µM; in the assay with SF-539 CNS it was 1.63 µM; in the assay with MDA-MB-435 it was 1.78 µM; in the assay on PC-3 prostate, 1.06 µM; in the assay on TK-10 renal, 1.62 µM; in the assay on CAKI-1 renal it was 1.77 µM. Also, the GI50 in the assay on COLO 205 colon is 1.97 µM. Further, the TGI was 3.24 µM in the assay on SK-MEL-28 melanoma; 3.03 µM in the assay with SF-539 CNS; 3.33 µM with MDA-MB-435; 2.61 µM with PC-3 prostate; 3.23 µM with TK-10 renal; 3.46 µM in the assay on CAKI-1 renal. The compound also had a TGI in the assay on COLO 205 colon of 3.8 µM.
